Measured values: patent US8048868B1, “Method of preventing preeclampsia” (Scott & White Healthcare, priority 2008, dated 2011)

Experiments:
normal pregnant rats = experiment: Normal pregnant rats given RBG daily from day 4 of pregnancy (NPR); format: in vivo, Sprague-Dawley rats
Experimental: Female Sprague-Dawley rats (200-250 g) were obtained from Charles River Laboratories (Wilmington, Mass.) and housed in the animal facility. They were allowed free access to standard rat chow and tap water. Animal care was conducted in accordance with institutional guidelines. The rats were acclimatized for 1 week prior to being studied. The animals were mated with male Sprague-Dawley rats (Charles River Laboratories, Wilmington, Mass.) weighing 275-300 g. Pregnancy was confirmed by the presence of vaginal plugs or by examination of vaginal smears. The pregnant females were then isolated from the males. Four groups of animals were studied: normal pregnant (NP) rats given tap water ad libitum (n=10), pregnant DOCA+saline (PDS) animals (n=8) injected initially with 12.5 mg of DOCA in a depot form intraperitoneally followed by 6.5 mg on a weekly basis and whose drinking water was replaced with 0.9% saline; […] (NPR rats, n=5); and, pregnant DOCA+saline+RBG (PDSR) animals (n=8) given daily injections of RBG in a dose of 30 micrograms per kilogram body weight per day intraperitoneally beginning on day 4 of pregnancy in addition to treatment with DOCA+saline. RBG was obtained from ChromaDex (Santa Ana, Calif.) and dissolved in dimethyl sulfoxide (DMSO). Systolic blood pressure (BP) was measured by the tail-cuff method (IITC Inc., LifeScience Instruments, model 59). For each BP value reported, 3-4 readings were performed when the BP had stabilized and the mean of these values was calculated. The measurements were obtained at the following time points: prior to pregnancy (baseline), at 1-4 days, 4-7 days, 6-9 days, 8-11 days, 11-14 days, 13-16 days, 15-18 days and 18-21 days of pregnancy. At 18-21 days of pregnancy, 24-hr urine was collected in the absence of food (this was done to eliminate contamination of the urinary protein determination by any fallen food particles). Each animal was housed separately in a metabolic cage. The rats were sacrificed at 18-21 days of pregnancy and blood was drawn. The pups were counted and inspected for malformations. The 24-hr protein excretion was measured using the pyrogallol red method (Total protein Kit, Micro Pyrogallol Red Method, Sigma).
Creatinine was measured in the blood and urine on a Nova 16 Analyzer (Waltham, Mass.) and the creatinine clearance was calculated. Hematocrit was measured using a StatSpin MP Multipurpose Centrifuge (Norwood, Mass.). Statistics were performed using analysis of variance (ANOVA) and Tukey's post-hoc test.
Blood pressure results for four groups of experimental animals obtained at various time periods during gestation: NP=normal pregnant rats; PDS=pregnant animals given saline in their drinking water and injected weekly with DOCA; PDSR=rats in whom resibufogenin 30 μg/kg/day) was injected at the onset of pregnancy along with DOCA and the provision of saline as drinking water; NPR=normal pregnant animals injected daily with resibufogenin 30 μg/kg/day. See text for statistical analyses.

[1] = system: pregnant DOCA+saline (PDS) rats; experiment: Rat model of preeclampsia (pregnant DOCA+saline rats), RBG given daily from day 4 of pregnancy; format: in vivo, Sprague-Dawley rats; settings: RBG 15 μg/kg/min daily given to PDS rats (data not shown)
[2] = system: "preeclamptic (PDS)" rats; settings: RBG given when the disorder was established (Vu et al. 2006); cited from earlier work
[3] = system: pregnant DOCA+saline (PDS) rats; experiment: Rat model of preeclampsia (pregnant DOCA+saline rats), RBG given daily from day 4 of pregnancy; format: in vivo, Sprague-Dawley rats
Description: In an attempt to reproduce this situation, a rat model was developed and employed in which pregnant animals are given weekly injections of the powerful mineralocorticoid desoxycorticosterone acetate (DOCA) and whose drinking water is replaced with saline Ianosi-Irimie M, Vu H V, Whitbred J M, et al. A rat model of preeclampsia. Clin Exp Hypertens 2005; 8:605-17. These animals develop characteristic findings of human preeclampsia including hypertension, proteinuria, excessive body weight gain and IUGR. In addition, associated with their experimental condition, they excrete increased amounts of the bufodienolide, marinobufagenin (MBG) Vu H V, Ianosi-Irimie M R, Pridjian C A, et al. Involvement of marinobufagenin in a rat model of human preeclampsia. Am J NephroI 2005; 25:520-8. MBG is a cardiotonic steroid which has vasoconstrictor, natriuretic and cardiac inotropic properties Schoner W. Endogenous cardiac glycosides, a new class of steroid hormones. Eur J Biochem 2002; 269:2440-8. Furthermore, the increased urinary excretion of this compound precedes the development of hypertension and proteinuria Vu H V, Ianosi-Irimie M R, Pridjian C A, et al. Involvement of marinobufagenin in a rat model of human preeclampsia. Am J NephroI 2005; 25:520-8. […] Therefore, the purpose of the study which is presented in this communication was to determine if intervention early in pregnancy would have more beneficial effects on IUGR than the administration of RBG at a time when the rodent disorder was already established.
Female Sprague-Dawley rats (200-250 g) were obtained from Charles River Laboratories (Wilmington, Mass.) and housed in the animal facility. They were allowed free access to standard rat chow and tap water. Animal care was conducted in accordance with institutional guidelines. The rats were acclimatized for 1 week prior to being studied. The animals were mated with male Sprague-Dawley rats (Charles River Laboratories, Wilmington, Mass.) weighing 275-300 g. Pregnancy was confirmed by the presence of vaginal plugs or by examination of vaginal smears. The pregnant females were then isolated from the males. Four groups of animals were studied: normal pregnant (NP) rats given tap water ad libitum (n=10), pregnant DOCA+saline (PDS) animals (n=8) injected initially with 12.5 mg of DOCA in a depot form intraperitoneally followed by 6.5 mg on a weekly basis and whose drinking water was replaced with 0.9% saline; normal pregnant rats given RBG by daily injection in a dose of 30 micrograms per kilogram body weight per day intraperitoneally beginning on day 4 of pregnancy (NPR rats, n=5); and, pregnant DOCA+saline+RBG (PDSR) animals (n=8) given daily injections of RBG in a dose of 30 micrograms per kilogram body weight per day intraperitoneally beginning on day 4 of pregnancy in addition to treatment with DOCA+saline. RBG was obtained from ChromaDex (Santa Ana, Calif.) and dissolved in dimethyl sulfoxide (DMSO). Systolic blood pressure (BP) was measured by the tail-cuff method (IITC Inc., LifeScience Instruments, model 59). For each BP value reported, 3-4 readings were performed when the BP had stabilized and the mean of these values was calculated. The measurements were obtained at the following time points: prior to pregnancy (baseline), at 1-4 days, 4-7 days, 6-9 days, 8-11 days, 11-14 days, 13-16 days, 15-18 days and 18-21 days of pregnancy. At 18-21 days of pregnancy, 24-hr urine was collected in the absence of food (this was done to eliminate contamination of the urinary protein determination by any fallen food particles). Each animal was housed separately in a metabolic cage. The rats were sacrificed at 18-21 days of pregnancy and blood was drawn. The pups were counted and inspected for malformations. The 24-hr protein excretion was measured using the pyrogallol red method (Total protein Kit, Micro Pyrogallol Red Method, Sigma). […]

[4] = NPR rats, RBG 30 micrograms/kg/day i.p., 18-21 days
[5] = PDSR rats, RBG 30 micrograms/kg/day i.p., 18-21 days

## C[C@]12CC[C@H](O)C[C@H]1CC[C@@H]1[C@@H]2CC[C@]2(C)[C@@H](c3ccc(=O)oc3)C[C@H]3O[C@]132 [RBG, resibufogenin]
Normal pregnant rats; NPR rats (n=5), prior to pregnancy (baseline)
  Mean systolic blood pressure (tail-cuff), baseline: 104±5 mmHg
Normal pregnant rats; [4]
  CCR (creatinine clearance): 1.20 ± 0.49 mL/min
  Hematocrit: 0.38±0.01
  Protein Excretion (24-hr urine): 4.6±0.8 mg/24 hr
Normal pregnant rats; NPR rats, RBG 30 micrograms/kg/day i.p., sacrifice at 18-21 days
  Pups (average number of pups): 11.8±1.6
Normal pregnant rats; NPR rats: RBG 30 micrograms/kg/day i.p. from day 4, 18-21 days of pregnancy
  Mean systolic blood pressure (tail-cuff), final: 125±6 mmHg
Normal pregnant rats; RBG 15 μg/kg/min daily, animal group not clearly stated (data not shown)
  Effect on blood pressure at lower dose: did increase blood pressure
Normal pregnant rats; given alone to normal pregnant animals
  Agonist effect on blood pressure: causes modest hypertension
[1]
  Prevention of hypertension at lower dose: failed to prevent hypertension
[2]
  Hypertension and proteinuria: could be corrected
  IUGR: trend toward improvement
[3]; PDSR rats (n=8), prior to pregnancy (baseline)
  Mean systolic blood pressure (tail-cuff), baseline: 105±5 mmHg
[3]; [5]
  CCR (creatinine clearance): 1.07 ± 0.29 mL/min
  Hematocrit: 0.33±0.02
  Protein Excretion (24-hr urine): 2.5±1.1 mg/24 hr
[3]; PDSR rats, RBG 30 micrograms/kg/day i.p., sacrifice at 18-21 days
  Pups (average number of pups): 14.6±1.3
[3]; PDSR rats: DOCA+saline + RBG 30 micrograms/kg/day i.p. from day 4, 18-21 days of pregnancy
  Mean systolic blood pressure (tail-cuff), final: 87±6 mmHg
[3]; early administration in gestation
  Prevention of hypertension, proteinuria and intrauterine growth restriction (summary): prevent hypertension, proteinuria and intrauterine growth restriction
